Experimental findings from ChEMBL document CHEMBL2086323, “Anti-adipogenic chromone glycosides from Cnidium monnieri fruits in 3T3-L1 cells” (2012) are described below.

The subject of experiment [1] is 3T3-L1. Nature of the experiment: Inhibition of adipogenesis in mouse 3T3L1 cells assessed as fat accumulation at 300 uM after 8 days by oil red O-staining based by ELISA plate reader. The format is functional. The note with it: 3T3-L1, 192 h.
In experiment [2] the test system is 3T3-L1. Description: Inhibition of adipogenesis in mouse 3T3L1 cells assessed as fat accumulation at 300 uM after 2 to 8 days by oil red O-staining based by ELISA plate reader. Format: functional, cell-based.
The subject of experiment [3] is 3T3-L1. Nature of the experiment: Inhibition of adipogenesis in mouse 3T3L1 cells assessed as fat accumulation at 300 uM after 2 to 4 days by oil red O-staining based by ELISA plate reader. Format: functional, cell-based.
Experiment [4] relates to 3T3-L1. Nature of the experiment: Inhibition of adipogenesis in mouse 3T3L1 cells assessed as fat accumulation at 300 uM up to 4 days by oil red O-staining based by ELISA plate reader. The format is functional, cell-based.
Experiment [5] deals with 3T3-L1. Description: Inhibition of adipogenesis in mouse 3T3L1 cells assessed as fat accumulation at 300 uM up to 2 days by oil red O-staining based by ELISA plate reader. The format is functional, cell-based.
Experiment [6] concerns 3T3-L1. Nature of the experiment: Inhibition of adipogenesis in mouse 3T3L1 cells assessed as fat accumulation at 300 uM after 4 to 8 days by oil red O-staining based by ELISA plate reader. Format: functional, cell-based.
Experiment [7] concerns 3T3-L1. Nature of the experiment: Inhibition of adipogenesis in mouse 3T3L1 cells assessed as fat accumulation at 100 uM after 8 days by oil red O-staining based by ELISA plate reader. Format: functional. The settings on record: 3T3-L1, 192 h.

Molecules are shown by their SMILES. Calls of active or inactive are those of the source. The calls are words filed in the database; no cut-off is given here.

In general, inhibition refers to the relative decrease from the control value, in per cent. As to `C/C(=C/Cc1c(O[C@@H]2O[C@H](CO)[C@@H](O)[C@H](O)[C@H]2O)cc2oc(C)cc(=O)c2c1O)CO`, the inhibition at 300 µM in the experiment with 3T3-L1 [1] was 87%.
In the case of `C/C(=C/Cc1c(O)cc2oc(C)cc(=O)c2c1O)CO[C@@H]1O[C@H](CO)[C@@H](O)[C@H](O)[C@H]1O` [CNIDIMOSIDE A], the inhibition at 300 µM in the experiment with 3T3-L1 [1] is 75%.
In the case of `COc1cc2oc(C)cc(=O)c2c(O)c1C/C=C(/C)CO[C@@H]1O[C@H](CO)[C@@H](O)[C@H](O)[C@H]1O` [CNIDIMOSIDE B], the inhibition result with 3T3-L1 [2], in the experiment on 3T3-L1 [3], in the experiment on 3T3-L1 [4], in the experiment with 3T3-L1 [5] and in the experiment on 3T3-L1 [6] was “Active” each time. The inhibition at 300 µM in the experiment with 3T3-L1 [1] was 14.7%.
For `C/C(=C/Cc1c(O)cc2oc(CO)cc(=O)c2c1O)CO[C@@H]1O[C@H](CO)[C@@H](O)[C@H](O)[C@H]1O` [HYDROXYCNIDIMOSIDE A], in the experiment with 3T3-L1 [1], the inhibition at 300 µM was found to be 73.1%.
As for `C/C(=C/Cc1c(O[C@@H]2O[C@H](CO)[C@@H](O)[C@H](O)[C@H]2O)cc2oc(CO)cc(=O)c2c1O)CO` [MONNIERISIDE B], the inhibition at 300 µM with 3T3-L1 [1] came to 68.9%.
As for `C=C(C)C(Cc1c(O)cc2oc(C)cc(=O)c2c1O)O[C@@H]1O[C@H](CO)[C@@H](O)[C@H](O)[C@H]1O` (stereo partly drawn) [MONNIERISIDE C], the inhibition at 300 µM with 3T3-L1 [1] worked out at 79.9%.
On the same count and under the same terms, under `C=C(C)C(Cc1c(O)cc2oc(CO)cc(=O)c2c1O)O[C@@H]1O[C@H](CO)[C@@H](O)[C@H](O)[C@H]1O` (stereo partly drawn) [MONNIERISIDE D] stands 85.5%; under `C=C(C)C(O)Cc1c(O[C@@H]2O[C@H](CO)[C@@H](O)[C@H](O)[C@H]2O)cc2oc(CO)cc(=O)c2c1O` (stereo partly drawn) [MONNIERISIDE E], 82.2%; under `C=C(C)C1Cc2c(cc3oc(CO[C@@H]4O[C@H](CO)[C@@H](O)[C@H](O)[C@H]4O)cc(=O)c3c2O)O1` (stereo partly drawn) [MONNIERISIDE F], 97.1%.
Consider `Cc1cc(=O)c2c(O)c3c(cc2o1)OC(C(C)(C)O[C@@H]1O[C@H](CO)[C@@H](O)[C@H](O)[C@H]1O)C3` (stereo partly drawn) [MONNIERISIDE G], for which the inhibition at 300 µM in the experiment on 3T3-L1 [1] was 99.7%.
On to `Oc1ccc(/C=C/c2cc(O)cc(O)c2)cc1` [RESVERATROL], for which the inhibition at 100 µM in the experiment on 3T3-L1 [7] is 19.4%.
Regarding `C=C(C)C1Cc2c(cc3oc(CO)cc(=O)c3c2O)O1` (stereo not drawn) [UMTATIN], the inhibition at 300 µM in the experiment on 3T3-L1 [1] is 89.4%.
For `Cc1cc(=O)c2c(O)cc(O[C@@H]3O[C@H](CO)[C@@H](O)[C@H](O)[C@H]3O)cc2o1` [UNDULATOSIDE A], the inhibition at 300 µM in the experiment on 3T3-L1 [1] came to 88.5%.
